Where two headings read alike, the source gives them in different places.
Key:
Test in all cases: TGFα-shedding assay-based GPCR screening with chimeric Gα subunit proteins
Assay type in all cases: cell-based
348 GPCRs [1] = target: T1, 348 GPCRs (Homo sapiens, UniProt O00254); conditions: 10µM, Favipiravir 100μM
T1 construct: expressed in transfected cells; host or cells: HEK293A
T1 sequence (O00254 22-374): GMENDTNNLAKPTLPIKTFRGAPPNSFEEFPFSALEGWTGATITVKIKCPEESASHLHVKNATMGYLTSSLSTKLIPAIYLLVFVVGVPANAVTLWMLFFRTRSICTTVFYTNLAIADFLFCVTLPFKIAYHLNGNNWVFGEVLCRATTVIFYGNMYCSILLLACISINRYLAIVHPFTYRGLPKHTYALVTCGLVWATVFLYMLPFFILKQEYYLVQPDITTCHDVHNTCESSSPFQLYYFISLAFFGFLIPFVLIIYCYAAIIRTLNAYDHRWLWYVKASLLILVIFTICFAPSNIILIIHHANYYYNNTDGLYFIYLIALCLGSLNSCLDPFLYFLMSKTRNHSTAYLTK

348 GPCRs [2] = target: T2, 348 GPCRs (Homo sapiens, UniProt Q14416); conditions: 10µM, Favipiravir 100μM
T2 construct: expressed in transfected cells; host or cells: HEK293A
T2 sequence (Q14416 19-872): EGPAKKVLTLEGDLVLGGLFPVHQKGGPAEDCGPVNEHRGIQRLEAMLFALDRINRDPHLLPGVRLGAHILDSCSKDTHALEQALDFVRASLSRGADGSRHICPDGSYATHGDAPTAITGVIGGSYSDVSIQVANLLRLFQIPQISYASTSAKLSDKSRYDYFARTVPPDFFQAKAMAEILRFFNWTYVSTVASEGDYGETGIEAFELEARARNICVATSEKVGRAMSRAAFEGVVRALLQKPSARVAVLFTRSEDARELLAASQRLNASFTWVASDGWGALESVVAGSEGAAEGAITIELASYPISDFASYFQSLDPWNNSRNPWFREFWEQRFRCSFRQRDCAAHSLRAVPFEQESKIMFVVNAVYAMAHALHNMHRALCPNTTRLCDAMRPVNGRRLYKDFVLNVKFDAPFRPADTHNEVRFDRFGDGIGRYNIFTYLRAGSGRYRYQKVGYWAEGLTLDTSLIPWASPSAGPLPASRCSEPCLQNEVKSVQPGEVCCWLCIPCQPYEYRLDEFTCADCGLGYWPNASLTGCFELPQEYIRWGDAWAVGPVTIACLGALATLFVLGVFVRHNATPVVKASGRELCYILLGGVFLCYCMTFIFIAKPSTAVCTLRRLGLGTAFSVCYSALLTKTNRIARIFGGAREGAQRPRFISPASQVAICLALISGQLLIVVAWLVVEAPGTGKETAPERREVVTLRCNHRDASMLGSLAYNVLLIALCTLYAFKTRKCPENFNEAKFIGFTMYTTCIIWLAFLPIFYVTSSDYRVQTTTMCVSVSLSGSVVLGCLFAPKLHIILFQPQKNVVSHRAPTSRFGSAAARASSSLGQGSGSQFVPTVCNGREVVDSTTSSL

348 GPCRs [3] = target: 348 GPCRs (Homo sapiens, UniProt Q96LA9); conditions: 10µM, Favipiravir 100μM
Chain of 348 GPCRs (Homo sapiens, UniProt Q96LA9) (Q96LA9 whole entry): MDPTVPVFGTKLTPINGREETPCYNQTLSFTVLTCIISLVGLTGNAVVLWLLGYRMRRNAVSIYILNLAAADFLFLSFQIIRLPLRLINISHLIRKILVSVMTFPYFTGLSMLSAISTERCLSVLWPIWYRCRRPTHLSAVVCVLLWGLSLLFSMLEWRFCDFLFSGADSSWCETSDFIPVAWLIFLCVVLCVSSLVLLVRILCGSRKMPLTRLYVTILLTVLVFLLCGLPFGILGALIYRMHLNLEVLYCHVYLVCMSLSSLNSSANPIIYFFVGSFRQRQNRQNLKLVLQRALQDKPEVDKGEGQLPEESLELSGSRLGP

348 GPCRs [4] = target: T3, 348 GPCRs (Homo sapiens, UniProt Q99677); conditions: LPAR4 (lysophosphatidic acid receptor 4); 10µM, Favipiravir 100μM
T3 construct: expressed in transfected cells; host or cells: HEK293A
T3 sequence (Q99677 whole entry): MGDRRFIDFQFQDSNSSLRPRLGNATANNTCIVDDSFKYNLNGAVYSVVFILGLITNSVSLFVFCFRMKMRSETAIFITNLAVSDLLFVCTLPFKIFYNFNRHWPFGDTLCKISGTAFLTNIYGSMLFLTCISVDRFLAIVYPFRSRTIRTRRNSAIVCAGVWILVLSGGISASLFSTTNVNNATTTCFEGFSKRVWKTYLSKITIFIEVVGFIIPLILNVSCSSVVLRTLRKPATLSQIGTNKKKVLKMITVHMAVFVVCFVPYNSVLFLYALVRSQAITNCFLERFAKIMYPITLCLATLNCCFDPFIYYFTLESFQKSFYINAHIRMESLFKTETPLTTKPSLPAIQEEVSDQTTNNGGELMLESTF

348 GPCRs [5] = target: T4, 348 GPCRs (Homo sapiens, UniProt Q9NYV8); conditions: 10µM, Favipiravir 100μM
T4 construct: expressed in transfected cells; host or cells: HEK293A
T4 sequence (Q9NYV8 1-317): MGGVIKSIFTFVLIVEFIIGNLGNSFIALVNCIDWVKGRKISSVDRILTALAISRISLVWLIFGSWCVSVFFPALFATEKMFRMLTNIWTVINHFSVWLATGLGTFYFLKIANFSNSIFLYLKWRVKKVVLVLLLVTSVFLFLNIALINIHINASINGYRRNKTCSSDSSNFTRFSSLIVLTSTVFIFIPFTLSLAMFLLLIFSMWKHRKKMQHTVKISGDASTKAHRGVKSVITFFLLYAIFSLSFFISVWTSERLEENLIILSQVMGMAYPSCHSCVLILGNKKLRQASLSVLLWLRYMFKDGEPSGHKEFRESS

348 GPCRs [6] = target: T5, 348 GPCRs (Homo sapiens, UniProt P48544); conditions: 10µM, Favipiravir 100μM
T5 construct: expressed in transfected cells; host or cells: HEK293A
T5 sequence (P48544 1-419): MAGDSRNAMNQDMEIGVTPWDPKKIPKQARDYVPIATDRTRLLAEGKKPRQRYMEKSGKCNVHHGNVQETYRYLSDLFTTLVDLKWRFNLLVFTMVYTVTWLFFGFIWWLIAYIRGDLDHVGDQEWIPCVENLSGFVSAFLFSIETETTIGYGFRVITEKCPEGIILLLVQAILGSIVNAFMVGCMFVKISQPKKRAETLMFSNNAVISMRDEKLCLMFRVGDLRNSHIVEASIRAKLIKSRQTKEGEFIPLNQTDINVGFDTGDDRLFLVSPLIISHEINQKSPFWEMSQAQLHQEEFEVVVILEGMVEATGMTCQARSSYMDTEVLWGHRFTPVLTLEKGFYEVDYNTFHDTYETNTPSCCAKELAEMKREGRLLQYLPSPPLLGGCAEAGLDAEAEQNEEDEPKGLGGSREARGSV

348 GPCRs [7] = target: T6, 348 GPCRs (Homo sapiens, UniProt O15354); conditions: 10µM, Favipiravir 100μM
T6 construct: expressed in transfected cells; host or cells: HEK293A
T6 sequence (O15354 27-613): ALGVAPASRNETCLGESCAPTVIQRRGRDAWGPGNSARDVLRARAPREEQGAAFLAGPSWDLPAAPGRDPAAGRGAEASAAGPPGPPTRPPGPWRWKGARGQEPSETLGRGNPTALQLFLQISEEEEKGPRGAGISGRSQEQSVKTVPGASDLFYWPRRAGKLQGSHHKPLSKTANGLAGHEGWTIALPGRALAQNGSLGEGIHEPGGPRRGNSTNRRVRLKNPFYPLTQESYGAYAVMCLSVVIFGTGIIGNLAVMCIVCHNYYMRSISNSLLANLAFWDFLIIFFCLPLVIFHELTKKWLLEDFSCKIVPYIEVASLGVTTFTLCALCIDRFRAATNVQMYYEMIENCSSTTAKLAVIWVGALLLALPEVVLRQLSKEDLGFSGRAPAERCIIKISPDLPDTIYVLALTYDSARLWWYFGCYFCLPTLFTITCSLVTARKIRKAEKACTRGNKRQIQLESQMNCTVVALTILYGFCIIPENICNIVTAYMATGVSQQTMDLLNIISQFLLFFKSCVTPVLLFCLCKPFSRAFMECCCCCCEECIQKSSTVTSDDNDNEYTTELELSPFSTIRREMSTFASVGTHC

348 GPCRs [8] = target: T7, 348 GPCRs (Homo sapiens, UniProt Q9GZN0); conditions: 10µM, Favipiravir 100μM
T7 construct: expressed in transfected cells; host or cells: HEK293A
T7 sequence (Q9GZN0 whole entry): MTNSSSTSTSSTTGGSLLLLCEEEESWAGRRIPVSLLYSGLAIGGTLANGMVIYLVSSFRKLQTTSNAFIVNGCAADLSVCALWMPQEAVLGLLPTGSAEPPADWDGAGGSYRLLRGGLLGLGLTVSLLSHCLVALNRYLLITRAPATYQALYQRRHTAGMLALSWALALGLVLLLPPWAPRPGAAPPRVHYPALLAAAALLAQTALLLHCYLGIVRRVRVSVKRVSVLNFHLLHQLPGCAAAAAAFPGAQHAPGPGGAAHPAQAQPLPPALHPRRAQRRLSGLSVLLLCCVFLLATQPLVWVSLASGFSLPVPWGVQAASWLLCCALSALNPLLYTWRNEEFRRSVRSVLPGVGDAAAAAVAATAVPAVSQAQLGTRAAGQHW

348 GPCRs [9] = target: T8, 348 GPCRs (Homo sapiens, UniProt P25090); conditions: 10µM, Favipiravir 100μM
T8 sequence (P25090 1-351): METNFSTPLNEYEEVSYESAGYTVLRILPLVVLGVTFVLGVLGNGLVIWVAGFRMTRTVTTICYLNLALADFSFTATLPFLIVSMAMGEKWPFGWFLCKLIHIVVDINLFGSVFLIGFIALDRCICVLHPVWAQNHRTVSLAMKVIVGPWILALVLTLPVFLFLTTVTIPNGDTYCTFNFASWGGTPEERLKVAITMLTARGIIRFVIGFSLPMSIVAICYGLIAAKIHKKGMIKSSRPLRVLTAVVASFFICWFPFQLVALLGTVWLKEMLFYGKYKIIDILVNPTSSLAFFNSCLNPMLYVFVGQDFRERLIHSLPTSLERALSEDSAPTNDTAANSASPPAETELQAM

[10] = F2RL2 (coagulation factor II (thrombin) receptor-like 2), read-out: % GPCR activation compared to TPA
[11] = GRM2 (glutamate metabotropic receptor 2), read-out: % GPCR activation compared to TPA
[12] = MRGPRX4 (MAS-related GPR, member X4), read-out: % GPCR activation compared to TPA
[13] = MRGX4 (MAS-related GPR, member X4), read-out: % GPCR activation compared to TPA
[14] = TAS2R14 (taste receptor, type 2, member 14), read-out: % GPCR activation compared to TPA
[15] = KCNJ5 (potassium inwardly rectifying channel, subfamily J, member 5), read-out: % GPCR activation compared to TPA
[16] = GPR37 (G protein-coupled receptor 37), read-out: % GPCR activation compared to TPA
[17] = GPR88 (G Protein-Coupled Receptor 88), read-out: % GPCR activation compared to TPA
[18] = FPR2 (formyl peptide receptor 2), read-out: % GPCR activation compared to TPA
[19] = read-out: % GPCR activation compared to TPA, F2RL2 (coagulation factor II (thrombin) receptor-like 2)
[20] = read-out: % GPCR activation compared to TPA, GRM2 (glutamate metabotropic receptor 2)
[21] = read-out: % GPCR activation compared to TPA, MRGPRX4 (MAS-related GPR, member X4)
[22] = read-out: % GPCR activation compared to TPA, MRGX4 (MAS-related GPR, member X4)
[23] = read-out: % GPCR activation compared to TPA, TAS2R14 (taste receptor, type 2, member 14)
[24] = read-out: % GPCR activation compared to TPA, KCNJ5 (potassium inwardly rectifying channel, subfamily J, member 5)
[25] = read-out: % GPCR activation compared to TPA, GPR37 (G protein-coupled receptor 37)
[26] = read-out: % GPCR activation compared to TPA, GPR88 (G Protein-Coupled Receptor 88)
[27] = read-out: % GPCR activation compared to TPA, FPR2 (formyl peptide receptor 2)

Structure (SMILES)	activation at 10 µM (348 GPCRs [1]; [10]) [%]	activation at 10 µM (348 GPCRs [2]; [11]) [%]	activation at 100 µM (348 GPCRs [3]; [12]) [%]	activation at 100 µM (348 GPCRs [3]; [13]) [%]	% GPCR activation compared to TPA (348 GPCRs [4]) [%]	activation at 100 µM (348 GPCRs [5]; [14]) [%]	activation at 100 µM (348 GPCRs [6]; [15]) [%]	activation at 10 µM (348 GPCRs [7]; [16]) [%]	activation at 100 µM (348 GPCRs [8]; [17]) [%]	activation at 100 µM (348 GPCRs [9]; [18]) [%]	activation at 10 µM (348 GPCRs [1]; [19]) [%]	activation at 10 µM (348 GPCRs [2]; [20]) [%]	activation at 100 µM (348 GPCRs [3]; [21]) [%]	activation at 100 µM (348 GPCRs [3]; [22]) [%]	activation at 100 µM (348 GPCRs [5]; [23]) [%]	activation at 100 µM (348 GPCRs [6]; [24]) [%]	activation at 10 µM (348 GPCRs [7]; [25]) [%]	activation at 100 µM (348 GPCRs [8]; [26]) [%]	activation at 100 µM (348 GPCRs [9]; [27]) [%]
N#C[C@@]1(c2ccc3c(N)ncnn23)O[C@H](CO)[C@@H](O)[C@H]1O [GS441524]	-2.64	0.673	-1.84	0.701	1.193	-2.2	1.89	-2.53	-2.34	-0.97									
CCC(CC)COC(=O)[C@H](C)N[P@](=O)(OC[C@H]1O[C@@](C#N)(c2ccc3c(N)ncnn23)[C@H](O)[C@@H]1O)Oc1ccccc1 [remdesivir]					-0.0834						-1.15	1.1	-0.071	-1.24	-1.51	1.55	-0.881	-0.608	-0.745
CC(C)OC(=O)[C@H](C)N[P@](=O)(OC[C@H]1O[C@@H](n2ccc(=O)[nH]c2=O)[C@](C)(F)[C@@H]1O)Oc1ccccc1 [sofosbuvir]					3.133						1.05	-2.27	-0.776	-14.4	-1.26	-2.66	-2.61	-0.818	-1.57
NC(=O)c1nc(F)cnc1O [favipiravir, 6-fluoro-3-hydroxy-2-pyrazinecarboxamide]	-0.958	-0.721	-1.47	-11.1	-0.5456	0.627	-1.78	-0.655	-1.1	-3.31									
CC(C)C(=O)OC[C@H]1O[C@@H](n2ccc(NO)nc2=O)[C@H](O)[C@@H]1O [molnupiravir]	-1.18	0.98	-2.9	-28.1	-0.2125	-1.82	-0.841	-2.05	-1.19	-1.5									
